Laboratory results published in patent US9481630B2, “Ingenane-type diterpene compound, and pharmaceutical composition for treating or preventing viral infectious diseases containing same” (priority 2011, dated 2016).

System: NK92 cells
Experiment: IFN-γ production in NK92 cells, released IFN-γ in culture supernatant by ELISA
Type: cell-based, human
Conditions: for effect on IFN-γ production: 10 nM, similar to the same dose of PMA (positive control)
Protocol: NK92 cells (human NK lymphoma) were obtained from American Type Culture Collection. NK92 cells were kept in α-MEM (Invitrogen, US) containing 20% fetal bovine serum (Invitrogen), 2 mM […], […] (Invitrogen), and were replenished with 100 U/mL IL-2 (Peprotech, US). NK92 cell culture was carried out in a culture medium at 37° C. under 5% CO2 humidity atmosphere. The amount of human IFN-γ was analyzed according to the protocol of a supplier using an assay kit (Endogen, Woburn, US).
In order to detect IFN-γ, 2×10^5 NK92 cell/mL was inoculated in a 48-well culture plate, and was cultured for 12 hours with each isolated compounds in an α-MEM medium containing 20% FBS and IL-2. The IFN-γ released in the culture supernatant was analyzed using an ELISA method. The absorbance was measured on a microplate reader and the treatment and the analysis for all the compounds were repeated twice. The cell toxicity of the compound-treated NK92 cells was evaluated through an MTT analysis.

Row | Compound | activity for inducing IFN-γ production (5 μM) | effect on IFN-γ production | also measured
1 | gansuiphorin A [Compound 5] | had activity for inducing IFN-γ production |  | 
2 | CCCCCCCCCC(=O)OCC1=C[C@@H]2C(=O)[C@]3(C=C(C)[C@H](O)[C@@]3(O)[C@@H]1O)[C@H](C)C[C@@H]1[C@H]2C1(C)C [Compound 3, 20-O-decanoylingenol] |  |  | activity for inducing IFN-γ production (100 nM): had activity for inducing IFN-γ production
3 | CCCCC/C=C\C=C\C(=O)O[C@H]1C(C)=C[C@]23C(=O)[C@@H](C=C(COC(C)=O)[C@@H](O)[C@]12O)[C@H]1[C@@H](C[C@H]3C)C1(C)C [Compound 4, 20-O-acetylingenol-3-O-(2′E,4′Z) decadienate] |  | significant effects on the IFN-γ production | 
4 | C[C@H](C/C=C/C(C)(C)O)[C@@H]1CC[C@]2(C)C3=C(CC[C@@]12C)[C@@]1(C)CC[C@H](O)C(C)(C)C1CC3 (stereo partly drawn) [Compound 8, (20R,23E)-eupha-8,23-diene-3b,25-diol] | had activity for inducing IFN-γ production |  | 
5 | CCCCCCCCCCCC(=O)O[C@@]12C[C@@H](C)[C@]34C=C(C)[C@H](OC(=O)C(C)C(C)C)[C@@]3(O)[C@H](O)C(CO)=C[C@H](C4=O)[C@@H]1C2(C)C (stereo partly drawn) [Compound 6, 3-O-(2,3-dimethylbutanoyl)-13-O-dodecanoylingenol] |  | significant effects on the IFN-γ production | 
6 | CCCCCCCCCCCC(=O)O[C@@]12C[C@@H](C)[C@]34C=C(C)[C@H](O)[C@@]3(O)[C@H](OC(=O)C(C)C(C)C)C(C)=C[C@H](C4=O)C1C2(C)C (stereo partly drawn) [Compound 1, 5-O-(2,3-dimethylbutanoyl)-13-O-dodecanoyl-20-O-deoxyingenol] |  |  | activity for inducing IFN-γ production (1.25 μM): had activity for inducing IFN-γ production
